Reference: ChEMBL document CHEMBL3120157, “Structures and solution conformational dynamics of stylissamides G and H from the Bahamian sponge Stylissa caribica” (J Nat Prod, 2014)
Residues, ends and D or L forms follow the SMILES beside them.

Test system: HCT-116
Test: Cytotoxicity against human HCT116 cells assessed as cell viability by MTS assay
Format: functional, cell-based

Compound	EC50
CC[C@H](C)[C@@H]1NC(=O)[C@@H]2CCCN2C(=O)[C@H](Cc2c[nH]c3ccccc23)NC(=O)[C@@H]2CCCN2C(=O)[C@H](C(C)C)NC(=O)[C@H](Cc2ccccc2)NC(=O)[C@H](CO)NC1=O (cyclo(FVPWPIS))	5.7 µM
CC[C@H](C)[C@@H]1NC(=O)[C@H](CC(C)C)NC(=O)[C@@H]2CCCN2C(=O)[C@H](Cc2ccccc2)NC(=O)[C@@H]2CCCN2C(=O)[C@H](Cc2ccccc2)NC(=O)[C@@H]2CCCN2C1=O (cyclo(FPFPLIP))	> 200 µM
